Entries after “also recorded” stand apart in the source; their conditions may differ. Positions of bridges follow the written chain, without caps; N, C: chain ends. Non-standard residues stand in square brackets, D forms with d. Residues, ends and D or L forms follow the SMILES beside them. *: point of attachment. X1 = CC[C@H](C)CCCCC(=O)*; Dab = NCC[C@H](N)C(=O)O
How the values were obtained:
P. aeruginosa PAO1 = assay: microbe, parasite or virus in culture; details: for MICac: the MIC for the antibiotic in the combination: S3 Table, PAO1
How it was run: (§1)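 CLSI broth dilution; MHB; ~1 × 10^6 CFU/mL suspension mixed equal volume with drug; 37 °C for 18 h; visual read; triplicate. Broth sometimes supplemented with PG, PE, PC, CL, LPS, MgCl2, CaCl2 or PAβN.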

HEK-293 cells = details: high concentration of D-11; cited from earlier work
Description: Interes ... || Response: This comment is valuable. […] We believe that it is a safe drug candidate.

[1] = mice
Description: Since D-11 contains five positively charged amino acids, it is easier to bind to bacterial negatively charged membrane components.
However, we still carried out high-dose toxicity tests in mice according to the recommendations.

[2] = cited from earlier work
[3] = system: clinical P. aeruginosa isolates; assay: microbe, parasite or virus in culture; details: clinical isolates, 18 h
How it was run: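 MIC is the lowest drug concentration showing no visible growth after 18 h at 37 °C. Two-fold dilutions in MHB were combined with an equal volume of bacterial suspension (about 1 × 10^6 CFU/mL), following CLSI broth microdilution, in triplicate.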

P. aeruginosa NR-31041 = assay: microbe, parasite or virus in culture; set-up: MICa: MIC of the antibiotic / MICac: MIC of the antibiotic in the combination: unit not given beside the values; details: strain NR-31041, unit not given
How it was run: as §1

P. aeruginosa ATCC27853 = assay: microbe, parasite or virus in culture; set-up: MICa: MIC of the antibiotic / MICac: MIC of the antibiotic in the combination: unit not given beside the values; details: strain ATCC27853, unit not given
How it was run: as §1

P. aeruginosa NR-31040 = assay: microbe, parasite or virus in culture; set-up: MICa: MIC of the antibiotic / MICac: MIC of the antibiotic in the combination: unit not given beside the values; details: strain NR-31040, unit not given
How it was run: as §1

P. aeruginosa PAK = assay: microbe, parasite or virus in culture; set-up: MICa: MIC of the antibiotic / MICac: MIC of the antibiotic in the combination: unit not given beside the values; details: strain PAK, unit not given
How it was run: as §1

P. aeruginosa PA14 = assay: microbe, parasite or virus in culture; set-up: MICa: MIC of the antibiotic / MICac: MIC of the antibiotic in the combination: unit not given beside the values; details: strain PA14, unit not given
How it was run: as §1

P. aeruginosa AUMC-Pa-6 = assay: microbe, parasite or virus in culture; details: strain AUMC-Pa-6, unit not given
How it was run: as §1

P. aeruginosa AUMC-Pa-5 = assay: microbe, parasite or virus in culture; details: strain AUMC-Pa-5, unit not given
How it was run: as §1

P. aeruginosa AUMC-Pa-4 = assay: microbe, parasite or virus in culture; details: strain AUMC-Pa-4, unit not given
How it was run: as §1

P. aeruginosa AUMC-Pa-3 = assay: microbe, parasite or virus in culture; details: strain AUMC-Pa-3, unit not given
How it was run: as §1

PAO1 in human blood = assay: Antimicrobial activity in blood (ex vivo bacteremia model); format: cell-based, Pseudomonas aeruginosa; details: human blood, 5×10^7 CFU/mL PAO1; antibiotic combined with D-11 (4 μM); 4 hours
Procedure: Human blood of healthy individuals was obtained from Sanquin (certified Dutch organization responsible for meeting the need in healthcare for blood and blood products, https://www.sanquin.nl/) and was infected with 5×10^7 CFU/mL of PAO1. The blood was distributed at 0.5 mL in 2 mL Eppendorf tubes and treated with the antibiotics and peptides at the indicated concentrations at 37 °C for 4 hours. The samples were decimal serially diluted in PBS. Drops of 10 μL of each dilution on LB agar to track the development of infection. The experiment was performed in triplicate.

P. aeruginosa AUMC-Pa-1 = details: strain AUMC-Pa-1, unit not given
How it was run: as §1

P. aeruginosa AUMC-Pa-2 = details: strain AUMC-Pa-2, unit not given
How it was run: as §1

P. aeruginosa HM-214 = system: P. aeruginosa HM-214; set-up: MICa: MIC of the antibiotic / MICac: MIC of the antibiotic in the combination: unit not given beside the values; details: strain HM-214, unit not given
How it was run: as §1

Q: For `CC[C@@H](C)[C@@H](NC(=O)[C@H](N)CCCNC(=N)N)C(=O)N[C@@H](C(=O)N[C@H](CCC(N)=O)C(=O)N[C@H](CCCNC(=N)N)C(=O)N[C@@H](C(=O)N[C@H](CCCCN)C(=O)N[C@H](CCCCN)C(=O)N[C@H](Cc1c[nH]c2ccccc12)C(=O)N[C@H](CC(C)C)C(=O)N[C@H](CCCNC(=N)N)C(N)=O)[C@H](C)CC)C(C)C` [Peptide D-11] (H-[dR][dI][dV][dQ][dR][dI][dK][dK][dW][dL][dR]-NH2), which “MIC of the peptide” value (P. aeruginosa PAO1; PAO1, 18 h) is on record?
A: The value was 32 µM.

Q: What about the “MICb: the MIC of D-11” value (P. aeruginosa PAO1; PAO1, 18 h) of the same molecule?
A: The value was 32 µM.

Q: What about the “MICb: the MIC of the peptide” value (P. aeruginosa PAO1; PAO1, 18 h) of the same molecule?
A: The value was 32 µM.

Q: And the “toxicity to HEK-293 cells (in words)” value (HEK-293 cells)?
A: The value was “not toxic to HEK-293 cells; also recorded: no toxicity to HEK-293 cells”.

Q: And the “side effects in vivo (in words)” value ([1]; 10 mg/kg D-11)?
A: Its value is “no obvious side effects were observed”.

Q: And the “irritation after subcutaneous injection (in words)” value ([1]; subcutaneous 20 mg/kg D-11)?
A: Its value is “slightly irritating”.

Q: And the “stability in plasma (in words)” value [2]?
A: Its value is “stable in plasma”.

Q: Which results are given for `CC[C@H](C)CCCCC(=O)N[C@@H](CCN)C(=O)N[C@H](C(=O)N[C@@H](CCN)C(=O)N[C@H]1CCNC(=O)[C@H]([C@@H](C)O)NC(=O)[C@H](CCN)NC(=O)[C@H](CCN)NC(=O)[C@H](CC(C)C)NC(=O)[C@@H](Cc2ccccc2)NC(=O)[C@H](CCN)NC1=O)[C@@H](C)O` [Polymyxin B] (X1-[Dab]T[Dab][Dab][Dab][dF]L[Dab][Dab]T; lactam 4-C (inferred); N-terminus assumed)?
A: Antibiotic sensibility (MIC) of clinical P. aeruginosa isolate AUMC-Pa-1 [3]: 0.25 µM; Antibiotic sensibility (MIC) of clinical P. aeruginosa isolate AUMC-Pa-2 [3]: 0.25 µM; Antibiotic sensibility (MIC) of clinical P. aeruginosa isolate AUMC-Pa-3 [3]: 0.125 µM; Antibiotic sensibility (MIC) of clinical P. aeruginosa isolate AUMC-Pa-4 [3]: 1 µM; Antibiotic sensibility (MIC) of clinical P. aeruginosa isolate AUMC-Pa-5 [3]: 1 µM; Antibiotic sensibility (MIC) of clinical P. aeruginosa isolate AUMC-Pa-6 [3]: 1 µM; Antibiotic sensibility (MIC) of clinical P. aeruginosa isolate HM-214 [3]: 0.25 µM; Antibiotic sensibility (MIC) of clinical P. aeruginosa isolate NR-31040 [3]: 0.25 µM; Antibiotic sensibility (MIC) of clinical P. aeruginosa isolate NR-31041 [3]: 0.125 µM; MICa: MIC of the antibiotic (P. aeruginosa NR-31041; antibiotic alone): 0.125; MICac: MIC of the antibiotic in the combination (P. aeruginosa NR-31041; with D-11 at MICbc 4): 0.008; MICa: MIC of the antibiotic (P. aeruginosa ATCC27853; antibiotic alone): 0.125; MICac: MIC of the antibiotic in the combination (P. aeruginosa ATCC27853; with D-11 at MICbc 4): 0.008; MICa: MIC of the antibiotic (P. aeruginosa NR-31040; antibiotic alone): 0.25; MICac: MIC of the antibiotic in the combination (P. aeruginosa NR-31040; with D-11 at MICbc 4): 0.031; MICa: MIC of the antibiotic (P. aeruginosa PAK; antibiotic alone): 0.125; MICac: MIC of the antibiotic in the combination (P. aeruginosa PAK; with D-11 at MICbc 4): 0.008; MICa: MIC of the antibiotic (P. aeruginosa PA14; antibiotic alone): 0.125; MICac: MIC of the antibiotic in the combination (P. aeruginosa PA14; with D-11 at MICbc 4): 0.008; MICa: MIC of the antibiotic (P. aeruginosa AUMC-Pa-6; antibiotic alone): 1; MICac: MIC of the antibiotic in the combination (P. aeruginosa AUMC-Pa-6; with D-11 at MICbc 4): 0.25; MICa: MIC of the antibiotic (P. aeruginosa AUMC-Pa-5; antibiotic alone): 1; MICac: MIC of the antibiotic in the combination (P. aeruginosa AUMC-Pa-5; with D-11 at MICbc 4): 0.125; MICa: MIC of the antibiotic (P. aeruginosa AUMC-Pa-4; antibiotic alone): 1; MICac: MIC of the antibiotic in the combination (P. aeruginosa AUMC-Pa-4; with D-11 at MICbc 4): 0.5; MIC of polymyxin B (P. aeruginosa PAO1; 1×MIC used as positive control): 0.5 µg/mL; MICa: the MIC of antibiotics (P. aeruginosa PAO1; PAO1, 18 h): 0.25 µM; MICac: the MIC for the antibiotic in the combination (P. aeruginosa PAO1; with 2 μM D-11): 0.004 µM; MICac: the MIC for the antibiotic in the combination (P. aeruginosa PAO1; with 4 μM D-11): 0.001 µM; MICa: MIC of the antibiotic (P. aeruginosa AUMC-Pa-3; antibiotic alone): 0.125; MICac: MIC of the antibiotic in the combination (P. aeruginosa AUMC-Pa-3; with D-11 at MICbc 4): 0.002; antibacterial effect in blood (in words) (PAO1 in human blood): relative week antibacterial effects; MICa: MIC of the antibiotic (P. aeruginosa AUMC-Pa-1; antibiotic alone): 0.25; MICac: MIC of the antibiotic in the combination (P. aeruginosa AUMC-Pa-1; with D-11 at MICbc 4): 0.016; MICa: MIC of the antibiotic (P. aeruginosa AUMC-Pa-2; antibiotic alone): 0.25; MICac: MIC of the antibiotic in the combination (P. aeruginosa AUMC-Pa-2; with D-11 at MICbc 4): 0.016; MICa: MIC of the antibiotic (P. aeruginosa HM-214; antibiotic alone): 0.25; MICac: MIC of the antibiotic in the combination (P. aeruginosa HM-214; with D-11 at MICbc 4): 0.031

Reference: PMC8445441, “Elucidating the mechanism by which synthetic helper peptides sensitize Pseudomonas aeruginosa to multiple antibiotics” (PLoS Pathogens, 2021)
